Data as given in ChEMBL document CHEMBL1201862, “PubChem BioAssay data set” (2004).
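Results reflect a 48-hour exposure of cells in 96-well plates to compound at five concentrations. Here, GI50 denotes the concentration required for 50% inhibition of growth.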 The source made the active and inactive calls. No stated cut-off is given here; in the data, active = GI50 up to about 1.1 µM and inactive = higher. Where a SMILES comes first, the peptide text is derived from it. Square brackets hold non-standard residues; d marks the D form. Peptide text beside a SMILES is read from it.

What was measured:
Assay in all cases: DTP human tumour cell line panel, 48 h
[1] = tested on: NCI-H226
[2] = tested on: HOP-92
[3] = tested on: A549
[4] = tested on: SN12C
[5] = tested on: UACC-257
[6] = tested on: HT-29
[7] = tested on: LOX IMVI
[8] = tested on: K562
[9] = tested on: DLD-1
[10] = tested on: CCRF-CEM
[11] = tested on: SF-539
[12] = tested on: HCT-116
[13] = tested on: OVCAR-8
[14] = tested on: BT-549
[15] = tested on: MDA-MB-231
[16] = tested on: ACHN
[17] = tested on: PC-3
[18] = tested on: T47D
[19] = tested on: KM-20L2
[20] = tested on: SNB-78

| SMILES | GI50 [1] | GI50 [2] | GI50 [3] | GI50 [4] | GI50 [5] | GI50 [6] | GI50 [7] | GI50 [8] | GI50 [9] | GI50 [10] | GI50 [11] | GI50 [12] | GI50 [13] | GI50 [14] | GI50 [15] | GI50 [16] | GI50 [17] | GI50 [18] | GI50 [19] | GI50 [20] |
| --- | --- | --- | --- | --- | --- | --- | --- | --- | --- | --- | --- | --- | --- | --- | --- | --- | --- | --- | --- | --- |
| CN(C)c1cccc(OC(=O)NCCCl)c1 | > 100 µM (inactive) | 65.3 µM (inactive) | > 100 µM (inactive) | > 100 µM (inactive) | > 100 µM (inactive) | > 100 µM (inactive) | > 100 µM (inactive) | > 100 µM (inactive) | > 100 µM (inactive) | 68.2 µM (inactive) | > 100 µM (inactive) | > 100 µM (inactive) | > 100 µM (inactive) | – | – | – | – | – | – | – |
| O=C1CCc2cc3c(cc21)CC1(Cc2cc4c(cc2C1)CCCC4)C3 | – | 0.0489 µM (active) | 88.9 µM (inactive) | > 100 µM (inactive) | 35.6 µM (inactive) | 34.8 µM (inactive) | 58.5 µM (inactive) | 23.6 µM (inactive) | – | 72.3 µM (inactive) | > 100 µM (inactive) | 37.2 µM (inactive) | > 100 µM (inactive) | > 100 µM (inactive) | 19.4 µM (inactive) | > 100 µM (inactive) | > 100 µM (inactive) | 32.1 µM (inactive) | – | – |
| O=C(CCN1CCOCC1)C(=Cc1ccccc1)C(=O)CCN1CCOCC1 | 14.6 µM (inactive) | 2.11 µM (inactive) | 18.1 µM (inactive) | 2.96 µM (inactive) | 1.79 µM (inactive) | 2.98 µM (inactive) | 1.93 µM (inactive) | 0.836 µM (active) | 1.82 µM (inactive) | 0.796 µM (active) | 3.44 µM (inactive) | 2.29 µM (inactive) | 2.91 µM (inactive) | – | – | – | – | – | 9.16 µM (inactive) | 0.164 µM (active) |
| O=Cc1cc([N+](=O)[O-])no1 | 78.9 µM (inactive) | > 100 µM (inactive) | – | 38.9 µM (inactive) | 28.5 µM (inactive) | 23 µM (inactive) | 7.13 µM (inactive) | 4.85 µM (inactive) | – | 16.6 µM (inactive) | – | 11 µM (inactive) | 41 µM (inactive) | > 100 µM (inactive) | 26.5 µM (inactive) | – | 24.7 µM (inactive) | 50.5 µM (inactive) | – | – |
| CN(/N=N/c1[nH]cnc1C(N)=O)C1CCCCC1 | > 100 µM (inactive) | 55.1 µM (inactive) | > 100 µM (inactive) | > 100 µM (inactive) | 62.1 µM (inactive) | > 100 µM (inactive) | 42.2 µM (inactive) | – | > 100 µM (inactive) | 55.2 µM (inactive) | > 100 µM (inactive) | 50.4 µM (inactive) | 36.9 µM (inactive) | – | – | > 100 µM (inactive) | – | – | 81.3 µM (inactive) | > 100 µM (inactive) |
| COC(=O)Cc1c(C2C(CC(=O)OC)c3ccccc3N2C2OC(CO)C(O)C(O)C2O)[nH]c2ccccc12 (stereo unspecified) | – | > 100 µM (inactive) | > 100 µM (inactive) | > 100 µM (inactive) | > 100 µM (inactive) | > 100 µM (inactive) | – | – | – | > 100 µM (inactive) | – | > 100 µM (inactive) | – | > 100 µM (inactive) | > 100 µM (inactive) | – | > 100 µM (inactive) | – | – | – |
| Clc1ccc(/N=c2\oc3ccccc3cc2-c2nc3ccccc3[nH]2)c(Cl)c1 | – | 43.6 µM (inactive) | – | – | > 100 µM (inactive) | > 100 µM (inactive) | > 100 µM (inactive) | > 100 µM (inactive) | – | > 100 µM (inactive) | – | > 100 µM (inactive) | > 100 µM (inactive) | > 100 µM (inactive) | – | 31 µM (inactive) | > 100 µM (inactive) | > 100 µM (inactive) | – | – |
| O=C(O)c1cc2c(ncc3c(=O)n(-c4ccccc4)[nH]c32)s1 | > 100 µM (inactive) | > 100 µM (inactive) | > 100 µM (inactive) | > 100 µM (inactive) | – | > 100 µM (inactive) | > 100 µM (inactive) | > 100 µM (inactive) | > 100 µM (inactive) | > 100 µM (inactive) | > 100 µM (inactive) | > 100 µM (inactive) | > 100 µM (inactive) | – | – | > 100 µM (inactive) | – | – | > 100 µM (inactive) | – |
| CC(C)C[C@H](NC(=O)[C@H](CC(C)C)NC(=O)[C@@H](Cc1c[nH]c2ccccc12)NC(=O)[C@H](Cc1ccccc1)NC(=O)[C@@H](Cc1c[nH]c2ccccc12)NC(=O)[C@H](CCC(N)=O)NC(=O)[C@@H](CCC(N)=O)NC(=O)[C@@H]1CCCN1C(=O)[C@@H](CCCCN)NC(=O)[C@H]1CCCN1C(=O)[C@H](N)CCCN=C(N)N)C(N)=O (H-[dR][dP][dK]P[dQ]Q[dW]F[dW]LL-NH2) | > 100 µM (inactive) | > 100 µM (inactive) | > 100 µM (inactive) | > 100 µM (inactive) | > 48.3 µM (inactive) | > 100 µM (inactive) | > 100 µM (inactive) | > 100 µM (inactive) | > 100 µM (inactive) | > 100 µM (inactive) | > 61.4 µM (inactive) | > 100 µM (inactive) | > 100 µM (inactive) | – | – | – | – | – | > 100 µM (inactive) | > 100 µM (inactive) |
| CC1NC(=O)CNC(=O)CNC(=O)C(Cc2ccc(O)cc2)NC(=O)C(C(C)C)NC(=O)C(C)NC1=O (stereo unspecified) (cyclo(GGAAVY); configuration not given here) | > 100 µM (inactive) | 50.8 µM (inactive) | > 100 µM (inactive) | > 100 µM (inactive) | > 100 µM (inactive) | > 100 µM (inactive) | > 100 µM (inactive) | – | > 100 µM (inactive) | > 100 µM (inactive) | > 100 µM (inactive) | > 100 µM (inactive) | > 100 µM (inactive) | – | – | – | – | – | – | – |
